Source: patent US10752640B2, “Compounds active towards bromodomains” (NUEVOLUTION A/S, priority 2014, dated 2020)

Target: BRD4 protein (Homo sapiens, UniProt O60885)
Test: FRET assay, half maximal inhibitory concentration (IC50)
Format: binding
Conditions: BRD4 protein 50 nM, Biotin-H4KAc4 peptide 12.5 nM; A Further List of Classification
How it was run: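 Acetylated histone H4 peptide binding (biotin-H4KAc4, 12.5 nM final) to BRD4 (50 nM final) detected by TR-FRET between streptavidin cryptate (2.4 nM) and GST-XL665 antibody (10 nM) in KF/BSA. Buffer: HEPES pH 7.5, NaCl, CHAPS. Compound dilutions from 50 μM in 12.5% DMSO were preincubated with protein for 30 min. Variable-slope IC50.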

| SMILES | IC50 [nM] |
| --- | --- |
| Cc1cc(O)nc2ccc(NC(=O)c3cc(S(=O)(=O)N(C)C)ccc3N3CCCC3c3cc[nH]n3)cc12 (centres unmarked) [S59, 5-(dimethylsulfamoyl)-N-(2-hydroxy-4-methyl-6-quinolyl)-2-[2-(1H-pyrazol-3-yl)pyrrolidin-1-yl]benzamide] | < 200 |
| Cc1cc(O)nc2ccc(NC(=O)c3cc(S(=O)(=O)N(C)C)ccc3N3CCCC3c3nnn[nH]3)cc12 (centres unmarked) [S60, 5-(dimethylsulfamoyl)-N-(2-hydroxy-4-methyl-6-quinolyl)-2-[2-(1H-tetrazol-5-yl)pyrrolidin-1-yl]benzamide] | < 200 |
| Cc1cc(O)nc2ccc(NC(=O)c3cc(S(=O)(=O)N(C)C)ccc3N3CCC4C3CCCN4C)cc12 (centres unmarked) [S61, 5-(dimethylsulfamoyl)-N-(2-hydroxy-4-methyl-6-quinolyl)-2-(4-methyl-3,3a,5,6,7,7a-hexahydro-2H-pyrrolo[3,2-b]pyridin-1-yl)benzamide] | 500 to 1000 |
| Cc1cc(O)nc2ccc(NC(=O)c3cc(S(=O)(=O)N(C)C)ccc3N3CCCC3C(=O)N(C)C)cc12 (centres unmarked) [S62, 1-[4-(dimethylsulfamoyl)-2-[(2-hydroxy-4-methyl-6-quinolyl)carbamoyl]phenyl]-N,N-dimethyl-pyrrolidine-2-carboxamide] | < 200 |
| Cc1cc(O)nc2ccc(NC(=O)c3cc(S(=O)(=O)N(C)C)ccc3N3C4CCC3CC(C)(O)C4)cc12 (centres unmarked) [S65, 5-(dimethylsulfamoyl)-2-(3-hydroxy-3-methyl-8-azabicyclo[3.2.1]octan-8-yl)-N-(2-hydroxy-4-methyl-6-quinolyl)benzamide] | 500 to 1000 |
| Cc1cc(O)nc2ccc(NC(=O)c3cc(S(=O)(=O)N(C)C)ccc3N3CC(C)C(O)CC3C)cc12 (centres unmarked) [S66, 5-(dimethylsulfamoyl)-2-(4-hydroxy-2,5-dimethyl-1-piperidyl)-N-(2-hydroxy-4-methyl-6-quinolyl)benzamide] | 500 to 1000 |
| Cc1cc(O)nc2ccc(NC(=O)c3cc(S(=O)(=O)N(C)C)ccc3N3CCCCC3c3ccccc3)cc12 (centres unmarked) [S67, 5-(dimethylsulfamoyl)-N-(2-hydroxy-4-methyl-6-quinolyl)-2-(2-phenyl-1-piperidyl)benzamide] | < 200 |
| CCN(CC)S(=O)(=O)c1ccc(N2CCCC2)c(C(=O)Nc2ccc3nc(O)cc(C)c3c2)c1 [S71, 5-(diethylsulfamoyl)-N-(2-hydroxy-4-methyl-6-quinolyl)-2-pyrrolidin-1-yl-benzamide] | 500 to 1000 |
| CCN(CC)S(=O)(=O)c1ccc(N2CCCCC2)c(C(=O)Nc2ccc3nc(O)cc(C)c3c2)c1 [S72, 5-(diethylsulfamoyl)-N-(2-hydroxy-4-methyl-6-quinolyl)-2-(1-piperidyl)benzamide] | 500 to 1000 |
| Cc1cc(O)nc2ccc(NC(=O)c3cc([N+](=O)[O-])cnc3N3CCCCC3C)cc12 (centres unmarked) [S74, N-(2-hydroxy-4-methyl-6-quinolyl)-2-(2-methyl-1-piperidyl)-5-nitro-pyridine-3-carboxamide] | 500 to 1000 |
| O=C1CCc2cc(NC(=O)c3cc([N+](=O)[O-])ccc3N3CCCC3)ccc2N1 [S76, 5-nitro-N-(2-oxo-3,4-dihydro-1H-quinolin-6-yl)-2-pyrrolidin-1-yl-benzamide] | 1000 to 10000 |
| CN1C(=O)COc2cc(NC(=O)c3cc([N+](=O)[O-])ccc3N3CCCC3)ccc21 [S77, N-(4-methyl-3-oxo-1,4-benzoxazin-7-yl)-5-nitro-2-pyrrolidin-1-yl-benzamide] | 1000 to 10000 |
| O=C1CCc2cc(NC(=O)c3cc(S(=O)(=O)N4CCOCC4)ccc3N3CCCC3)ccc2N1 [S78, 5-morpholinosulfonyl-N-(2-oxo-3,4-dihydro-1H-quinolin-6-yl)-2-pyrrolidin-1-yl-benzamide] | 1000 to 10000 |
| CN1C(=O)COc2cc(NC(=O)c3cc(S(=O)(=O)N4CCOCC4)ccc3N3CCCC3)ccc21 [S79, N-(4-methyl-3-oxo-1,4-benzoxazin-7-yl)-5-morpholinosulfonyl-2-pyrrolidin-1-yl-benzamide] | 1000 to 10000 |
| CN1CCN(Cc2ccc(N3CCCC3)c(C(=O)Nc3ccc4c(c3)CCC(=O)N4)c2)CC1 [S80, 5-[(4-methylpiperazin-1-yl)methyl]-N-(2-oxo-3,4-dihydro-1H-quinolin-6-yl)-2-pyrrolidin-1-yl-benzamide] | 1000 to 10000 |
| Cc1cc(O)nc2ccc(NC(=O)c3cc(CN(C)CCO)ccc3N3CCCC3)cc12 [S81, 5-[[2-hydroxyethyl(methyl)amino]methyl]-N-(2-hydroxy-4-methyl-6-quinolyl)-2-pyrrolidin-1-yl-benzamide] | < 200 |
| Cc1cc(O)nc2ccc(NC(=O)c3cc(CNCC4CCCO4)ccc3N3CCCC3)cc12 (centres unmarked) [S82, N-(2-hydroxy-4-methyl-6-quinolyl)-2-pyrrolidin-1-yl-5-[(tetrahydrofuran-2-ylmethylamino)methyl]benzamide] | < 200 |
| Cc1cc(O)nc2ccc(NC(=O)c3cc(CN4CCC(N(C)C)C4)ccc3N3CCCC3)cc12 (centres unmarked) [S83, 5-[[3-(dimethylamino)pyrrolidin-1-yl]methyl]-N-(2-hydroxy-4-methyl-6-quinolyl)-2-pyrrolidin-1-yl-benzamide] | < 200 |

| SMILES | IC50 [nM] |
| --- | --- |
| Cc1cc(O)nc2ccc(NC(=O)c3cc(CN4CCC(O)C4)ccc3N3CCCC3)cc12 (centres unmarked) [S84, N-(2-hydroxy-4-methyl-6-quinolyl)-5-[(3-hydroxypyrrolidin-1-yl)methyl]-2-pyrrolidin-1-yl-benzamide] | < 200 |
| COC[C@@H]1CCCN1Cc1ccc(N2CCCC2)c(C(=O)Nc2ccc3nc(O)cc(C)c3c2)c1 [S85, N-(2-hydroxy-4-methyl-6-quinolyl)-5-[[(2S)-2-(methoxymethyl)pyrrolidin-1-yl]methyl]-2-pyrrolidin-1-yl-benzamide] | < 200 |
| Cc1cc(O)nc2ccc(NC(=O)c3cc(CN4CCN(CCO)CC4)ccc3N3CCCC3)cc12 [S86, 5-[[4-(2-hydroxyethyl)piperazin-1-yl]methyl]-N-(2-hydroxy-4-methyl-6-quinolyl)-2-pyrrolidin-1-yl-benzamide] | < 200 |
| Cc1cc(O)nc2ccc(NC(=O)c3cc(CN4CCCN(C)CC4)ccc3N3CCCC3)cc12 [S87, N-(2-hydroxy-4-methyl-6-quinolyl)-5-[(4-methyl-1,4-diazepan-1-yl)methyl]-2-pyrrolidin-1-yl-benzamide] | < 200 |
| COC1CCN(Cc2ccc(N3CCCC3)c(C(=O)Nc3ccc4nc(O)cc(C)c4c3)c2)C1 (centres unmarked) [S88, N-(2-hydroxy-4-methyl-6-quinolyl)-5-[(3-methoxypyrrolidin-1-yl)methyl]-2-pyrrolidin-1-yl-benzamide] | < 200 |
| Cc1cc(O)nc2ccc(NC(=O)c3cc(CN4CC(O)C4)ccc3N3CCCC3)cc12 [S89, 5-[(3-hydroxyazetidin-1-yl)methyl]-N-(2-hydroxy-4-methyl-6-quinolyl)-2-pyrrolidin-1-yl-benzamide] | < 200 |
| COCC1CN(Cc2ccc(N3CCCC3)c(C(=O)Nc3ccc4nc(O)cc(C)c4c3)c2)C1 [S90, N-(2-hydroxy-4-methyl-6-quinolyl)-5-[[3-(methoxymethyl)azetidin-1-yl]methyl]-2-pyrrolidin-1-yl-benzamide] | < 200 |
| COCC1CCCN(Cc2ccc(N3CCCC3)c(C(=O)Nc3ccc4nc(O)cc(C)c4c3)c2)C1 (centres unmarked) [S91, N-(2-hydroxy-4-methyl-6-quinolyl)-5-[[3-(methoxymethyl)-1-piperidyl]methyl]-2-pyrrolidin-1-yl-benzamide] | < 200 |
| Cc1cc(O)nc2ccc(NC(=O)c3cc(CN4CCOCC4)cnc3N3CCC(C)C3)cc12 (centres unmarked) [S93, N-(2-hydroxy-4-methyl-6-quinolyl)-2-(3-methylpyrrolidin-1-yl)-5-(morpholinomethyl)pyridine-3-carboxamide] | < 200 |
| Cc1cc(O)nc2ccc(NC(=O)c3cc(CN4CCOCC4)cnc3N3CCCC3C)cc12 (centres unmarked) [S94, N-(2-hydroxy-4-methyl-6-quinolyl)-2-(2-methylpyrrolidin-1-yl)-5-(morpholinomethyl)pyridine-3-carboxamide] | 200 to 500 |
| Cc1cc(O)nc2ccc(NC(=O)c3cc(CN4CCOCC4)cnc3N3CCC(C)(F)C3)cc12 (centres unmarked) [S97, 2-(3-fluoro-3-methyl-pyrrolidin-1-yl)-N-(2-hydroxy-4-methyl-6-quinolyl)-5-(morpholinomethyl)pyridine-3-carboxamide] | 200 to 500 |
| Cc1cc(O)nc2ccc(NC(=O)c3cc(CN4CCOCC4)cnc3N3CCC(C(N)=O)C3)cc12 (centres unmarked) [S98, 2-(3-carbamoylpyrrolidin-1-yl)-N-(2-hydroxy-4-methyl-6-quinolyl)-5-(morpholinomethyl)pyridine-3-carboxamide] | 500 to 1000 |
| Cc1cc(O)nc2ccc(NC(=O)c3cc(CN4CCOCC4)cnc3N3CCC(CC(C)C)C3)cc12 (centres unmarked) [S101, N-(2-hydroxy-4-methyl-6-quinolyl)-2-(3-isobutylpyrrolidin-1-yl)-5-(morpholinomethyl)pyridine-3-carboxamide] | 1000 to 10000 |
| Cc1cc(O)nc2ccc(NC(=O)c3cc(CN4CCOCC4)cnc3N3CCC(N4CCCC4)C3)cc12 (centres unmarked) [S107, N-(2-hydroxy-4-methyl-6-quinolyl)-5-(morpholinomethyl)-2-(3-pyrrolidin-1-ylpyrrolidin-1-yl)pyridine-3-carboxamide] | 1000 to 10000 |
| Cc1cc(O)nc2ccc(NC(=O)c3cc(CN4CCOCC4)cnc3N3CCCC3C(=O)N(C)C)cc12 (centres unmarked) [S109, 2-[2-(dimethylcarbamoyl)pyrrolidin-1-yl]-N-(2-hydroxy-4-methyl-6-quinolyl)-5-(morpholinomethyl)pyridine-3-carboxamide] | 500 to 1000 |
| Cc1cc(O)nc2ccc(NC(=O)c3cc(CN4CCOCC4)cnc3N3CCC(c4ccncc4)C3)cc12 (centres unmarked) [S111, N-(2-hydroxy-4-methyl-6-quinolyl)-5-(morpholinomethyl)-2-[3-(4-pyridyl)pyrrolidin-1-yl]pyridine-3-carboxamide] | 500 to 1000 |
| Cc1cc(O)nc2ccc(NC(=O)c3cc(CN4CCOCC4)cnc3N3CCOC(CO)C3)cc12 (centres unmarked) [S114, 2-[2-(hydroxymethyl)morpholin-4-yl]-N-(2-hydroxy-4-methyl-6-quinolyl)-5-(morpholinomethyl)pyridine-3-carboxamide] | > 10000 |
